In patent US20070123546A1, “2-amino-7,8-dihydro-6H-pyrido[4,3-d]pyrimidin-5-ones” (Chiron Corporation, priority 2005, published 2007):

Target: His-tagged N-terminal ATP binding domain (amino acid residues 9-236) of HSP90α (Homo sapiens, UniProt P07900)
Assay: HSP90 inhibitor binding potency: TRF competition binding assay
Conditions: Table 1; competition with biotinylated radicicol
Summary of the method: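 Competition against biotinylated radicicol for binding to the His-tagged 9-236 ATP domain of HSP90α: 2 h, room temperature, HEPES/MgCl2/KCl/BSA buffer. Streptavidin capture, then europium-labeled anti-His antibody and enhancement solution; europium counts give IC50.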

Row | IC50 [µM] | Structure (SMILES)
1 | < 10 | COc1nc(-c2cc(F)ccc2[C@H]2Cc3nc(N)nc(C)c3C(=O)N2)ncc1C [Compound 40, (R)-2-Amino-7-[4-fluoro-2-(4-methoxy-5-methyl-pyrimidin-2-yl)-phenyl]-4-methyl-7,8-dihydro-6H-pyrido[4,3-d]pyrimidin-5-one]
2 | > 10 | Cc1nc(N)nc2c1C(=O)NC(c1ccc(F)cc1-c1cncnc1)C2 (stereo not shown) [Compound 24, 2-Amino-7-(4-fluoro-2-pyrimidin-5-yl-phenyl)-4-methyl-7,8-dihydro-6H-pyrido[4,3-d]pyrimidin-5-one]
3 | < 10 | Cc1nc(N)nc2c1C(=O)N(C)C(c1ccc(F)cc1-c1cccnc1F)C2 (stereo not shown) [Compound 8, 2-Amino-7-[4-fluoro-2-(2-fluoro-pyridin-3-yl)-phenyl]-4,6-dimethyl-7,8-dihydro-6H-pyrido[4,3-d]pyrimidin-5-one]
4 | > 10 | Cc1nc(N)nc2c1C(=O)N(Cc1ccccc1)[C@H](c1ccc(F)cc1-c1cccnc1F)C2 [Compound 2, (S)-2-Amino-6-benzyl-7-[4-fluoro-2-(2-fluoro-pyridin-3-yl)-phenyl]-4-methyl-7,8-dihydro-6H-pyrido[4,3-d]pyrimidin-5-one]

Same assay, conditions: Table 2; competition with biotinylated radicicol

Row | IC50 [µM] | Structure (SMILES)
5 | < 10 | CCc1nc(N)nc2c1C(=O)N[C@@H](c1ccccc1-c1cncc(OC)n1)C2 [Compound 78, (R)-2-Amino-4-ethyl-7-[2-(6-methoxy-pyrazin-2-yl)-phenyl]-7,8-dihydro-6H-pyrido[4,3-d]pyrimidin-5-one]
6 | < 10 | CCc1nc(N)nc2c1C(=O)N[C@@H](c1ccc(F)cc1-c1cncc(OC)n1)C2 [Compound 82, (R)-2-Amino-4-ethyl-7-[4-fluoro-2-(6-methoxy-pyrazin-2-yl)-phenyl]-7,8-dihydro-6H-pyrido[4,3-d]pyrimidin-5-one]
7 | < 10 | COc1cc(F)ccc1-c1cc(F)ccc1[C@H]1Cc2nc(N)ncc2C(=O)N1 [Compound 56, (R)-2-Amino-7-(5,4′-difluoro-2′-methoxy-biphenyl-2-yl)-7,8-dihydro-6H-pyrido[4,3-d]pyrimidin-5-one]
8 | < 10 | Nc1ncc2c(n1)C[C@H](c1ccc(F)cc1-c1cccnc1)NC2=O [Compound 62, (R)-2-Amino-7-(4-fluoro-2-pyridin-3-yl-phenyl)-7,8-dihydro-6H-pyrido[4,3-d]pyrimidin-5-one]
9 | < 10 | COc1nc(-c2ccccc2[C@H]2Cc3nc(N)nc(C)c3C(=O)N2)cs1 [Compound 67, (R)-2-Amino-7-[2-(2-methoxy-thiazol-4-yl)-phenyl]-4-methyl-7,8-dihydro-6H-pyrido[4,3-d]pyrimidin-5-one]
10 | > 10 | CCc1nc(N)nc2c1C(=O)N[C@@H](c1ccc(F)cc1Br)C2 [Compound 70, (R)-2-Amino-7-(2-bromo-4-fluoro-phenyl)-4-ethyl-7,8-dihydro-6H-pyrido[4,3-d]pyrimidin-5-one]
11 | < 10 | CCc1nc(N)nc2c1C(=O)N[C@@H](c1ccccc1-c1cccc(OC)n1)C2 [Compound 77, (R)-2-Amino-4-ethyl-7-[2-(6-methoxy-pyndin-2-yl)-phenyl]-7,8-dihydro-6H-pyrido[4,3-d]pyrimidin-5-one]
12 | < 10 | COc1nc(-c2cc(F)ccc2[C@H]2Cc3nc(N)nc(C)c3C(=O)N2)ncc1Cl [Compound 52, (R)-2-Amino-7-[2-(5-chloro-4-methoxy-pyrimidin-2-yl)-4-fluoro-phenyl]-4-methyl-7,8-dihydro-6H-pyrido[4,3-d]pyrimidm-5-one]
13 | > 10 | CCc1nc(N)nc2c1C(=O)N[C@@H](c1ccccc1-c1csc(OC)n1)C2 [Compound 80, (R)-2-Amino-4-ethyl-7-[2-(2-methoxy-thiazol-4-yl)-phenyl]-7,8-dihydro-6H-pyrido[4,3-d]pyrimidin-5-one]

Same assay, conditions: Table 3; competition with biotinylated radicicol

Row | IC50 [µM] | Structure (SMILES)
14 | < 10 | COc1ncc(-c2cc(F)ccc2[C@H]2Cc3nc(N)nc(C)c3C(=O)N2CCC(C)C)nc1OC [Compound 147, (R)-2-Amino-7-[-(5,6-dimethoxy-pyrazin-2-yl)-4-fluoro-phenyl]-4-methyl-6-(3-methyl-butyl)-7,8-dihydro-6H-pyrido[4,3-d]pyrimidin-5-one]
15 | < 10 | COc1ncccc1-c1cc(F)ccc1[C@H]1Cc2nc(N)nc(C)c2C(=O)N1CC(C)C [Compound 158, (R)-2-Amino-7-[4-fluoro-2-(2-methoxy-pyridin-3-yl)-phenyl]-isobutyl-4-methyl-7,8-dihydro-6H-pyrido[4,3-d]pyrimidin-5-one]
16 | < 10 | Cc1nc(N)nc2c1C(=O)N(Cc1ccccc1)[C@@H](c1ccc(F)cc1-c1cccnc1F)C2 [Compound 143, (R)-2-Amino-6-benzyl-7-[4-fluoro-2-(2-fluoro-pyridin-3-yl)-phenyl]-4-methyl-7,8-dihydro-6H-pyrido[4,3-d]pyrimidin-5-one]
17 | < 10 | COc1cccc(-c2cc(F)ccc2[C@H]2Cc3nc(N)nc(C)c3C(=O)N2Cc2ccc(F)cc2)n1 [Compound 160, (R)-2-Amino-6-(4-fluoro-benzyl)-7-[4-fluoro-2-(6-methoxy-pyridin-2-yl)-phenyl]-4-methyl-7,8-dihydro-6H-pyrido[4,3-d]pyrimidin-5-one]
18 | > 10 | Cc1nc(N)nc2c1C(=O)N(CCC(C)C)[C@@H](c1ccc(F)cc1Br)C2 [Compound 148, (R)-2-Amino-7-(2-bromo-4-fluoro-phenyl)-4-methyl-6-(3-methyl-butyl)-7,8-dihydro-6H-pyrido[4,3-d]pyrimidin-5-one]
19 | < 10 | Cc1nc(N)nc2c1C(=O)N(Cc1ccccc1)[C@@H](c1ccc(F)cc1-c1cccnc1)C2 [Compound 140, (R)-2-Amino-6-benzyl-7-(4-fluoro-2-pyridin-3-yl-phenyl)-4-methyl-7,8-dihydro-6H-pyrido[4,3-d]pyrimidin-5-one]

The next lines start with the molecule.

Row | Structure (SMILES) | IC50 [µM]
20 | COc1cncc(-c2cc(F)ccc2[C@H]2Cc3nc(N)nc(C)c3C(=O)N2CC(C)(C)N2CCOCC2)n1 [Compound 133, (R)-2-Amino-7-[4-fluoro-2-(6-methoxy-pyrazin-2-yl)-phenyl]-4-methyl-6-(2-methyl-2-morpholin-4-yl-propyl)-7,8-dihydro-6H-pyrido[4,3-d]pyrimidin-5-one] | < 10
21 | Cc1nc(N)nc2c1C(=O)NC(c1ccccc1)C2 (stereo not shown) [Compound 92, 2-Amino-4-methyl-7-phenyl-7,8-dihydro-6H-pyrido[4,3-d]pyrimidin-5-one] | > 10
22 | Cc1nc(N)nc2c1C(=O)NC(c1ccc(F)cc1-c1ccncc1)C2 (stereo not shown) [Compound 90, 2-Amino-7-(4-fluoro-2-pyridin-4-yl-phenyl)-4-methyl-7,8-dihydro-6H-pyrido[4,3-d]pyrimidin-5-one] | > 10
23 | COc1cncc(-c2cc(F)ccc2[C@H]2Cc3nc(N)nc(C)c3C(=O)N2Cc2ccccc2F)n1 [Compound 129, (R)-2-Amino-6-(2-fluoro-benzyl)-7-[4-fluoro-2-(6-methoxy-pyrazin-2-yl)-phenyl]-4-methyl-7,8-dihydro-6H-pyrido[4,3-d]pyrimidin-5-one] | < 10
24 | COc1cccc(-c2cc(F)ccc2[C@H]2Cc3nc(N)nc(C)c3C(=O)N2CC2CCOCC2)n1 [Compound 132, (R)-2-Amino-7-[4-fluoro-2-(6-methoxy-pyridin-2-yl)-phenyl]-4-methyl-6-(tetrahydro-pyran-4-ylmethyl)-7,8-dihydro-6H-pyrido[4,3-d]pyrimidin-5-one] | < 10
25 | COc1ccc(-c2cc(F)ccc2C2Cc3nc(N)nc(C)c3C(=O)N2)cc1F (stereo not shown) [Compound 91, 2-Amino-7-(5,3′-difluoro-4′-methoxy-biphenyl-2-yl)-4-methyl-7,8-dihydro-6H-pyrido[4,3-d]pyrimidin-5-one] | > 10

Same assay, conditions: Table 4; competition with biotinylated radicicol

Row | IC50 [µM] | Structure (SMILES)
26 | < 10 | COc1ccccc1-c1cc(F)ccc1[C@H]1Cc2nc(N)ncc2C(=O)N1 [Compound 176, (R)-2-Amino-7-(5-fluoro-2′-methoxy-biphenyl-2-yl)-7,8-dihydro-6H-pyrido[4,3-d]pyrimidm-5-one]
27 | < 10 | COc1cccc(-c2scnc2[C@@H]2Cc3nc(N)nc(C)c3C(=O)N2)n1 [Compound 232, (S)-2-Amino-7-[5-(6-methoxy-pyridin-2-yl)-thiazol-4-yl]-4-methyl-7,8-dihydro-6H-pyrido[4,3-d]pyrimidin-5-one]
28 | < 10 | CCOc1cncc(-c2cc(F)ccc2[C@H]2Cc3nc(N)nc(CC)c3C(=O)N2)n1 [Compound 217, (R)-2-Amino-7-[2-(6-ethoxy-pyrazin-2-yl)-4-fluoro-phenyl]-4-ethyl-7,8-dihydro-6H-pyrido[4,3-d]pyrimidin-5-one]
29 | < 10 | CCOc1cccc(-c2cc(F)ccc2[C@H]2Cc3nc(N)nc(C)c3C(=O)N2)n1 [Compound 187, (R)-2-Amino-7-[2-(6-ethoxy-pyridin-2-yl)-4-fluoro-phenyl]-4-methyl-7,8-dihydro-6H-pyrido[4,3-d]pyrimidin-5-one]
30 | ≥ 10 | COc1ccc(-c2cc(F)ccc2[C@H]2Cc3nc(N)ncc3C(=O)N2)cc1OC [Compound 179, (R)-2-Amino-7-(5-fluoro-3′,4′-dimethoxy-biphenyl-2-yl)-7,8-dihydro-6H-pyrido[4,3-d]pyrimidin-5-one]
31 | ≥ 10 | COc1ncc(-c2cc(F)ccc2[C@H]2Cc3nc(N)ncc3C(=O)N2)c(OC)n1 [Compound 192, (R)-2-Amino-7-[2-(2,4-dimethoxy-pyrimidin-5-yl)-4-fluoro-phenyl]-7,8-dihydro-6H-pyrido[4,3-d]pyrimidin-5-one]
32 | < 10 | CCOc1cncc(-c2cc(F)ccc2[C@H]2Cc3nc(N)nc(C)c3C(=O)N2)n1 [Compound 216, (R)-2-Amino-7-[2-(6-ethoxy-pyrazin-2-yl)-4-fluoro-phenyl]-4-methyl-7,8-dihydro-6H-pyrido[4,3-d]pyrimidin-5-one]
33 | < 10 | Cc1cc(F)ccc1-c1cc(F)ccc1[C@H]1Cc2nc(N)ncc2C(=O)N1 [Compound 183, (R)-2-Amino-7-(5,4′-difluoro-2′-methyl-biphenyl-2-yl)-7,8-fihydro-6H-pyrido[4,3-d]pyrimidm-5-one]
34 | < 10 | CCOc1cncc(-c2ccccc2[C@H]2Cc3nc(N)nc(C)c3C(=O)N2)n1 [Compound 220, (R)-2-Amino-7-[2-(6-ethoxy-pyrazin-2-yl)-phenyl]-4-methyl-7,8-dihydro-6H-pyrido[4,3-d]pyrimidin-5-one]
